Assays:
Assay type in all cases: in vivo
[1] = tested on: At chloroplastic ALT-1-01 T1 plants; assay: Herbicide tolerance of Arabidopsis thaliana T1 plants, sprayed, resistance classes counted 14 days after spraying; conditions: sprayed at 1-fold field concentration
Source text: (§1) T1 transformants were initially selected from the background of untransformed seeds using a glufosinate selection scheme. About 40000 T1 seeds were screened, and 380 T1 positive transformants (PAT gene) were identified with a transformation efficiency of about 0.95%. The plants that were transformed with the recombinant expression vector DBN100632 were Arabidopsis thaliana plants having an ALT-1-01 nucleotide sequence located in the cytoplasm introduced (At cytoplasmic ALT-1-01), and the plants that were transformed with the recombinant expression vector DBN100631 were Arabidopsis thaliana plants having an ALT-1-01 nucleotide sequence located in the chloroplast introduced (At chloroplastic ALT-1-01); the plants that were transformed with the recombinant expression vector DBN100634 were Arabidopsis thaliana plants having an ALT-2-01 nucleotide sequence located in the cytoplasm introduced (At cytoplasmic ALT-2-01), and the plants that were transformed with the recombinant expression vector DBN100633 were Arabidopsis thaliana plants having an ALT-2-01 nucleotide sequence located in the chloroplast introduced (At chloroplastic ALT-2-01); and the plants that were transformed with the recombinant expression vector DBN100636 were Arabidopsis thaliana plants having an ALT-3-01 nucleotide sequence located in the cytoplasm introduced (At cytoplasmic ALT-3-01), and the plants that were transformed with the recombinant expression vector DBN100635 were Arabidopsis thaliana plants having an ALT-3-01 nucleotide sequence located in the chloroplast introduced (At chloroplastic ALT-3-01).
(§2) Plants were counted for the resistance situations 14 days after spraying: those having a consistent growth status with the blank solvent (water) group after 14 days were classified as highly resistant plants, those having a bolting height less than ½ of that of the blank solvent (water) group after 14 days were classified as moderately resistant plants, those still not capable of bolting after 14 days were classified as poorly resistant plants, and those dead after 14 days were classified as non-resistant plants. Since each Arabidopsis thaliana T1 plant was an independent transformation event, a significant difference in individual T1 responses could be expected at a given dose.
as §2, with “situation” for “situations”

[2] = tested on: At chloroplastic ALT-2-01 T1 plants; assay: as above; conditions: sprayed at 1-fold field concentration
Source text: as §1, §2
as §2, with “situation” for “situations”

[3] = tested on: At chloroplastic ALT-3-01 T1 plants; assay: as above; conditions: sprayed at 1-fold field concentration
Source text: as §1, §2
as §2, with “situation” for “situations”

[4] = tested on: At cytoplasmic ALT-1-01 T1 plants; assay: as above; conditions: sprayed at 1-fold field concentration
Source text: as §1, §2
as §2, with “situation” for “situations”

[5] = tested on: At cytoplasmic ALT-2-01 T1 plants; assay: as above; conditions: sprayed at 1-fold field concentration
Source text: as §1, §2
as §2, with “situation” for “situations”

[6] = tested on: At cytoplasmic ALT-3-01 T1 plants; assay: as above; conditions: sprayed at 1-fold field concentration
Source text: as §1, §2
as §2, with “situation” for “situations”

[7] = tested on: wild-type Arabidopsis thaliana plants; assay: Herbicide tolerance of Arabidopsis thaliana plants, sprayed, resistance classes counted 14 days after spraying; conditions: wild-type; sprayed at 1-fold field concentration; 14 days after spraying
Source text: as §1, §2
as §2, with “situation” for “situations”

[8] = tested on: transformed Arabidopsis thaliana T1 plants (ALT-1, ALT-2 and ALT-3); assay: Herbicide tolerance of transgenic Arabidopsis thaliana T1 plants, overall conclusion; conditions: all transformed Arabidopsis thaliana T1 plants; 1-fold field concentration
Source text: as §2
as §2, with “situation” for “situations”

[9] = tested on: Gm chloroplastic ALT-1-01 soybean plants; assay: Glyphosate tolerance of soybean plants, herbicide damage rate; conditions: 840 g ae/ha (1-fold field concentration), 14 DAT
Source text: (§3) The herbicide tolerance effects of Gm cytoplasmic ALT-1-01 soybean plants, Gm chloroplastic ALT-1-01 soybean plants, Gm cytoplasmic ALT-2-01 soybean plants, Gm chloroplastic ALT-2-01 soybean plants, Gm cytoplasmic ALT-3-01 soybean plants, Gm chloroplastic ALT-3-01 soybean plants and wild-type soybean plants on glyphosate were detected (at seedling stage), respectively.
(§4) 2 strains from Gm cytoplasmic ALT-1-01 soybean plants, Gm chloroplastic ALT-1-01 soybean plants, Gm cytoplasmic ALT-2-01 soybean plants, Gm chloroplastic ALT-2-01 soybean plants, Gm cytoplasmic ALT-3-01 soybean plants, Gm chloroplastic ALT-3-01 soybean plants and wild-type soybean plants were respectively taken each, and 10-15 plants were selected from each strain and tested. The plants above were sprayed with glyphosate (840 g ae/ha, 1-fold field concentration) and a blank solvent (water). The herbicide damage rate was measured for each plant according to the phytotoxicity symptoms 14 days after spraying (14 DAT): herbicide damage rate (%)=Σ(number of damaged plants at the same level× level number)/(total number of plants×highest level).

[10] = tested on: Gm chloroplastic ALT-2-01 soybean plants; assay: as above; conditions: 840 g ae/ha (1-fold field concentration), 14 DAT
Source text: as §3, §4

[11] = tested on: Gm chloroplastic ALT-3-01 soybean plants; assay: as above; conditions: 840 g ae/ha (1-fold field concentration), 14 DAT
Source text: as §3, §4

[12] = tested on: Gm cytoplasmic ALT-1-01 soybean plants; assay: as above; conditions: 840 g ae/ha (1-fold field concentration), 14 DAT
Source text: as §3, §4

[13] = tested on: Gm cytoplasmic ALT-2-01 soybean plants; assay: as above; conditions: 840 g ae/ha (1-fold field concentration), 14 DAT
Source text: as §3, §4

[14] = tested on: Gm cytoplasmic ALT-3-01 soybean plants; assay: as above; conditions: 840 g ae/ha (1-fold field concentration), 14 DAT
Source text: as §3, §4

[15] = tested on: wild-type soybean plants (CK1); assay: as above; conditions: 840 g ae/ha (1-fold field concentration), 14 DAT
Source text: as §3, §4

| SMILES | Highly resistant (number of plants) [1] | Moderately resistant (number of plants) [1] | Non-resistant (number of plants) [1] | Poorly resistant (number of plants) [1] | Highly resistant (number of plants) [2] | Moderately resistant (number of plants) [2] | Non-resistant (number of plants) [2] | Poorly resistant (number of plants) [2] | Highly resistant (number of plants) [3] | Moderately resistant (number of plants) [3] | Non-resistant (number of plants) [3] | Poorly resistant (number of plants) [3] | Highly resistant (number of plants) [4] | Moderately resistant (number of plants) [4] | Non-resistant (number of plants) [4] | Poorly resistant (number of plants) [4] | Highly resistant (number of plants) [5] | Moderately resistant (number of plants) [5] | Non-resistant (number of plants) [5] | Poorly resistant (number of plants) [5] | other results |
| --- | --- | --- | --- | --- | --- | --- | --- | --- | --- | --- | --- | --- | --- | --- | --- | --- | --- | --- | --- | --- | --- |
| COC(=O)c1ccc(CNS(C)(=O)=O)cc1S(=O)(=O)NC(=O)Nc1nc(OC)cc(OC)n1 [mesosulfuron] | 0 | 0 | 32 | 0 | 0 | 0 | 30 | 0 | 0 | 0 | 32 | 0 | 0 | 0 | 29 | 0 | 0 | 0 | 32 | 0 | Highly resistant (number of plants) [6]: 0; Moderately resistant (number of plants) [6]: 0; Non-resistant (number of plants) [6]: 30; Poorly resistant (number of plants) [6]: 0; Highly resistant (number of plants) [7]: 0; Moderately resistant (number of plants) [7]: 0; Non-resistant (number of plants) [7]: 28; Poorly resistant (number of plants) [7]: 0; ability of the transformed plants to degrade the herbicide (in words) [8]: did not exhibit the ability to degrade |
| COC(=O)c1ccc(I)cc1S(=O)(=O)NC(=O)Nc1nc(C)nc(OC)n1 [iodosulfuron-methyl] | 0 | 0 | 30 | 0 | 0 | 0 | 31 | 0 | 0 | 0 | 32 | 0 | 0 | 0 | 29 | 0 | 0 | 0 | 30 | 0 | Highly resistant (number of plants) [6]: 0; Moderately resistant (number of plants) [6]: 0; Non-resistant (number of plants) [6]: 30; Poorly resistant (number of plants) [6]: 0; Highly resistant (number of plants) [7]: 0; Moderately resistant (number of plants) [7]: 0; Non-resistant (number of plants) [7]: 29; Poorly resistant (number of plants) [7]: 0; ability of the transformed plants to degrade the herbicide (in words) [8]: did not exhibit the ability to degrade |
| Cc1cc(C)nc(NC(=O)NS(=O)(=O)c2ccccc2C(=O)OC2COC2)n1 [oxasulfuron] | 0 | 0 | 30 | 0 | 0 | 0 | 30 | 0 | 0 | 0 | 31 | 0 | 0 | 0 | 28 | 0 | 0 | 0 | 30 | 0 | Highly resistant (number of plants) [6]: 0; Moderately resistant (number of plants) [6]: 0; Non-resistant (number of plants) [6]: 30; Poorly resistant (number of plants) [6]: 0; Highly resistant (number of plants) [7]: 0; Moderately resistant (number of plants) [7]: 0; Non-resistant (number of plants) [7]: 28; Poorly resistant (number of plants) [7]: 0; ability of the transformed plants to degrade the herbicide (in words) [8]: did not exhibit the ability to degrade |
| O=C(O)CNCP(=O)(O)O [glyphosate, N-phosphonomethylglycine] | – | – | – | – | – | – | – | – | – | – | – | – | – | – | – | – | – | – | – | – | glyphosate herbicide damage rate [9]: ~0%; glyphosate herbicide damage rate [10]: ~0%; glyphosate herbicide damage rate [11]: ~0%; glyphosate herbicide damage rate [12]: ~0%; glyphosate herbicide damage rate [13]: ~0%; glyphosate herbicide damage rate [14]: ~0%; glyphosate herbicide damage rate [15]: not less than 90% |

Source: patent US20190029252A1, “Use of Herbicide-tolerant Protein” (BEIJING DABEINONG TECHNOLOGY GROUP CO., LTD., priority 2016, published 2019)
